This is an account of results in ChEMBL document CHEMBL4837181 (Eur J Med Chem, 2020).

Data set [1] in a line: Chemical stability of compound in PBS buffer assessed as compound remaining at pH 7.4 at 5 uM measured after 6 hrs by LC-MS/MS analysis. In kind it is physicochemical. The note with it: read-out: Stabilty.
The nature of data set [2]: Stability in mouse plasma assessed as parent compound remaining measured after 2 hrs by LC-MS/MS analysis. In kind it is ADME, cell-free. The note with it: read-out: Stabilty.
Data set [3] is described as follows: Dose normalized AUC (0 to infinity) in rat at 10 mg/kg, po measured upto 72 hrs by LC-MS/MS analysis. In kind it is ADME, organism-based. The note with it: in vivo.
Data set [4] is described as follows: Change in normalised AUCinfinity in rat at 10 mg/kg, po measured upto 72 hrs by LC-MS/MS analysis. In kind it is ADME, organism-based. The note with it: in vivo.
Data set [5] in a line: Chemical stability of compound in simulated intestinal fluid assessed as compound remaining at 5 uM measured after 3 hrs by LC-MS/MS analysis. Conditions: read-out: Stabilty. In kind it is ADME, physicochemical.
A short description of data set [6]: Chemical stability of compound in 0.1 N aqueous HCl buffer assessed as compound remaining at pH 1 at 5 uM measured after 1.5 hrs by LC-MS/MS analysis. The class given is physicochemical. Conditions: pH 1, 1.5 h.
Data set [7] in a line: Chemical stability of compound in saline assessed as compound remaining at 5 uM measured after 24 hrs by LC-MS/MS analysis. The class given is physicochemical. Conditions: read-out: Stabilty.
Data set [8] is described as follows: Stability in rat plasma assessed as parent compound remaining measured after 2 hrs by LC-MS/MS analysis. In kind it is ADME, cell-free. The note with it: read-out: Stabilty.
Data set [9] in a line: Chemical stability of compound in PBS buffer assessed as compound remaining at pH 7.4 at 5 uM measured after 24 hrs by LC-MS/MS analysis. In kind it is physicochemical. Conditions: read-out: Stabilty.
A short description of data set [10]: Chemical stability of compound in simulated gastric fluid assessed as compound remaining at 5 uM measured after 1.5 hrs by LC-MS/MS analysis. The class given is ADME, physicochemical. The note with it: read-out: Stabilty.
A short description of data set [11]: Stability in human plasma assessed as parent compound remaining measured after 24 hrs by LC-MS/MS analysis. The class given is ADME, cell-free. Conditions: read-out: Stabilty.
Data set [12] in a line: Chemical stability of compound in 0.1 N aqueous HCl buffer assessed as compound remaining at pH 1 at 5 uM measured after 24 hrs by LC-MS/MS analysis. The class given is physicochemical. The note with it: pH 1, 24 h.
A short description of data set [13]: Change in normalised Cmax in rat at 10 mg/kg, po measured upto 72 hrs by LC-MS/MS analysis. The class given is ADME, organism-based. The note with it: in vivo.
Data set [14] is described as follows: Chemical stability of compound in simulated intestinal fluid assessed as compound remaining at 5 uM measured after 24 hrs by LC-MS/MS analysis. The class given is ADME, physicochemical. Conditions: read-out: Stabilty.
The nature of data set [15]: Stability in human plasma assessed as parent compound remaining measured after 6 hrs by LC-MS/MS analysis. Conditions: read-out: Stabilty. The class given is ADME, cell-free.
Data set [16] is described as follows: Dose normalized Cmax in rat at 10 mg/kg, po measured upto 72 hrs by LC-MS/MS analysis. Conditions: in vivo. In kind it is ADME, organism-based.
A short description of data set [17]: Chemical stability of compound in simulated gastric fluid assessed as compound remaining at 5 uM measured after 24 hrs by LC-MS/MS analysis. Conditions: read-out: Stabilty. In kind it is ADME, physicochemical.

`CC(C)C(NC(=O)[C@H](N)Cc1cn(C)c2ccccc12)C(=O)O.Cl` (single isomer, unassigned): the remaining at 6 h, 5 µM in data set [1] stood at 99%. For the same compound, the remaining at 2 h in data set [2] was 89%; in data set [8], 100%. In data set [3], this compound displayed an AUC/dose of 202 µM·h. Further, the Activity in data set [4] is recorded as -60%; in data set [13], -91%. Besides, the remaining at 3 h, 5 µM in data set [5] was 62%. Moreover, the values for the Stabilty in data set [6] and in data set [12] were 51% and 98%, respectively. The remaining at 24 h, 5 µM in data set [7] is 98%; in data set [9] it was 37%; in data set [14] it was 64%; in [17] it was 49%. Besides, the remaining at 1.5 h, 5 µM in [10] was 54%. Besides, in data set [11], the remaining at 24 h worked out at 39%. For the same compound, the remaining at 6 h in data set [15] is 68%. Also, the Cmax/dose in [16] was determined as 1.6 µM.
`Cl.Cn1cc(C[C@@H](NC(=O)[C@H](N)Cc2c[nH]c3ccccc23)C(=O)O)c2ccccc21`: the remaining at 6 h, 5 µM in data set [1] was 81%. Besides, the remaining at 2 h in [2] is 82%; in data set [8], 79%. The AUC/dose in data set [3] amounted to 182 µM·h. Moreover, the Activity in [4] is listed as -64%; in data set [13] it was -82%. In data set [5], the remaining at 3 h, 5 µM was 53%. Besides, the results for the Stabilty in data set [6] and in data set [12] were 53% and 87%, respectively. In addition, the remaining at 24 h, 5 µM in data set [7] is 87%; in data set [9] it was 45%; in [14], 51%; in data set [17], 48%. For the same compound, the remaining at 1.5 h, 5 µM in data set [10] was 51%. Moreover, the remaining at 24 h in data set [11] was 32%. Besides, the remaining at 6 h in data set [15] was 77%. This compound also registered a Cmax/dose in [16] of 3.2 µM.
On to `Cl.Cn1cc(C[C@@H](N)C(=O)OCC(N)C(=O)O)c2ccccc21` (single isomer, unassigned), for which the remaining at 6 h, 5 µM in data set [1] stood at 0%. The values for the remaining at 2 h in data set [2] and in data set [8] were 80% and 84%, respectively. In addition, the AUC/dose in data set [3] worked out at 588 µM·h. In addition, the Activity in data set [4] is reported as 16%; in [13], -23%. In addition, the remaining at 3 h, 5 µM in data set [5] is 0%. Further, the figures for the Stabilty in [6] and in data set [12] were 10% and 70%, respectively. Further, the remaining at 24 h, 5 µM is 70% in [7], 0% in data set [9], 0% in [14] and 56% in data set [17]. The remaining at 1.5 h, 5 µM in data set [10] was 56%. Besides, the remaining at 24 h in data set [11] was 0%. Also, the remaining at 6 h in data set [15] is 0%. In data set [16], this compound displayed a Cmax/dose of 13.3 µM.
For the compound `CC(C)[C@H](N)C(=O)N[C@H](Cc1cn(C)c2ccccc12)C(=O)O.Cl`, in [1], the remaining at 6 h, 5 µM is 91%. Besides, the remaining at 2 h in data set [2] came to 57%; in [8] it was 9%. In data set [3], this compound registered an AUC/dose of 338 µM·h. Further, the Activity in data set [4] is -33%; in [13], -18%. The remaining at 3 h, 5 µM in [5] was 78%. For the same compound, the Stabilty in data set [6] stood at 98%; in data set [12], 99%. The remaining at 24 h, 5 µM in [7] was 99%; in data set [9] it was 44%; in data set [14], 76%; in data set [17], 50%. Moreover, the remaining at 1.5 h, 5 µM in [10] was 55%. The remaining at 24 h in data set [11] stood at 47%. In addition, in data set [15], the remaining at 6 h worked out at 79%. The Cmax/dose in [16] turned out to be 14.2 µM.
Take `Cl.Cn1cc(C[C@@H](NC(=O)[C@@H](N)Cc2ccccc2)C(=O)O)c2ccccc21`: the remaining at 6 h, 5 µM in data set [1] turned out to be 89%. In addition, the remaining at 2 h in data set [2] stood at 66%; in data set [8] it was 19%. The compound further returned an AUC/dose in data set [3] of 425 µM·h. The Activity in data set [4] was -16%; in data set [13], -31%. Further, the remaining at 3 h, 5 µM in data set [5] was 91%. Also, the Stabilty stood at 96% in [6] and 92% in data set [12]. Further, the remaining at 24 h, 5 µM in [7] was 92%; in data set [9], 92%; in data set [14], 0%; in data set [17], 80%. For the same compound, the remaining at 1.5 h, 5 µM in [10] was 79%. For the same compound, in [11], the remaining at 24 h turned out to be 75%. In addition, in data set [15], the remaining at 6 h worked out at 87%. This compound also had a Cmax/dose in data set [16] of 11.9 µM.
As to `CCOC(=O)[C@@H](Cc1cn(C)c2ccccc12)NC(=O)[C@@H](N)Cc1ccccc1.Cl`, the remaining at 6 h, 5 µM in [1] was 96%. Further, the remaining at 2 h in data set [2] and in data set [8] was 0% throughout. Moreover, the AUC/dose in [3] is 329 µM·h. The Activity in data set [4] is -35%; in data set [13], -54%. Moreover, the remaining at 3 h, 5 µM in data set [5] is 65%. Moreover, the Stabilty in data set [6] is reported as 99%; in data set [12], 90%. The remaining at 24 h, 5 µM is 90% in [7], 96% in data set [9], 0% in data set [14] and 86% in data set [17]. In addition, in data set [10], the remaining at 1.5 h, 5 µM is 89%. Moreover, the remaining at 24 h in [11] was 11%. Besides, in data set [15], the remaining at 6 h is 68%. Further, the Cmax/dose in [16] amounted to 7.9 µM.
With `CC[C@H](C)[C@H](N)C(=O)N[C@H](Cc1cn(C)c2ccccc12)C(=O)O.Cl`, the remaining at 6 h, 5 µM in [1] is 100%. Also, the remaining at 2 h worked out at 80% in data set [2] and 54% in data set [8]. Further, in data set [3], the AUC/dose stood at 316 µM·h. Also, the results for the Activity in data set [4] and in [13] were -38% and -28%, respectively. Besides, in [5], the remaining at 3 h, 5 µM is 94%. Besides, the Stabilty is listed as 92% in [6] and 98% in [12]. The remaining at 24 h, 5 µM in data set [7] is 98%; in data set [9], 100%; in [14], 0%; in data set [17] it was 77%. In data set [10], the remaining at 1.5 h, 5 µM was 81%. The remaining at 24 h in data set [11] was 86%. The remaining at 6 h in [15] is 84%. The compound also came in with a Cmax/dose in data set [16] of 12.5 µM.
As to `CN(C)CCOC(=O)[C@H](N)Cc1cn(C)c2ccccc12.Cl`, the remaining at 6 h, 5 µM in [1] was 0%. Besides, the remaining at 2 h in [2] and in [8] was 0% throughout. Further, in data set [3], the AUC/dose is 731 µM·h. Besides, the Activity in data set [4] was determined as 44%; in data set [13], 128%. In addition, the remaining at 3 h, 5 µM in data set [5] is 0%. Besides, the Stabilty in data set [6] is reported as 3%; in data set [12] it was 47%. Besides, the remaining at 24 h, 5 µM was 47% in data set [7], 0% in [9], 0% in data set [14] and 2% in data set [17]. In data set [10], the remaining at 1.5 h, 5 µM was 2%. Further, in data set [11], the remaining at 24 h came out at 2%. The remaining at 6 h in data set [15] turned out to be 10%. The same compound had a Cmax/dose in data set [16] of 39.5 µM.
